In US20230031406A1, “COMPOUNDS AND COMPOSITIONS FOR TREATING CONDITIONS ASSOCIATED WITH NLRP ACTIVITY” (Novartis AG, priority 2018, published 2023):
Like-named read-outs stand apart in the source and are kept apart here. Each block holds one molecule with its values, some of them ahead of it.

System: PMA-differentiated THP-1 cells
Assay: IL-1β production in PMA-differentiated THP-1 cells stimulated with gramicidin (hTHP-1 assay containing 2% fetal bovine serum; Procedures 1 and 2)
Type: cell-based, human
Conditions: 2% fetal bovine serum
How it was run: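 Human monocytic THP-1 cells, matured overnight with PMA at 20 ng/ml, are seeded in low-serum (2% FBS) RPMI. Test compounds, at final concentrations from 100 down to 0.0017 μM, precede gramicidin (5 μM, 2 h) by one hour. Released IL-1β is then determined by HTRF.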

[1] = Table B4, class symbols, read-out: hTHP-1 IC50
[2] = Homo sapiens, THP-1, Table B2, class symbols, read-out: hTHP-1 IC50
[3] = Table B2, class symbols, read-out: hTHP-1 IC50
[4] = Table B3, hTHP-1 assay, class symbols, read-out: IC50
[5] = Table B1, class symbols, read-out: Average IC50 of compounds in hTHP-1 assay: hTHP-1 IC50

IC50 [1]: 1 to 5 µM
Compound: CC1(C)CCc2c1nc1c(c2NC(=O)N=S(N)(=O)c2sc(C(O)(CO)CO)nc2CO)CCC1 (single isomer, unassigned) [Example 778, (S) or (R)-N′-((3,3-dimethyl-1,2,3,5,6,7-hexahydrodicyclopenta [b,e]pyridin-8-yl)carbamoyl)-4-(hydroxymethyl)-2-(1,2,3-trihydroxypropan-2-yl)-thiazole-5-sulfonimidamide]

IC50 [2]: 0.2 to 1 µM
Compound: CC(C)(O)c1cc(F)c(S(N)(=O)=NC(=O)Nc2c3c(nc(C4CC4)c2C2CC2)CCC3)s1 (centres unmarked) [Compound 727]

IC50 [3]: 0.2 to 1 µM
Compound: CC(C)(O)c1cnc(S(N)(=O)=NC(=O)Nc2c3c(nc4c2CCC4(C)C)CCC3)s1 (single isomer, unassigned) [Compound 686a, (S) or (R)-N′-((3,3-dimethyl-1,2,3,5,6,7-hexahydrodicyclopenta [b,e]pyridin-8-yl)carbamoyl)-5-(2-hydroxypropan-2-yl)thiazole-2-sulfonimidamide]

IC50 [2]: 1 to 5 µM
Compound: Cc1c(C(C)C)nc2c(c1NC(=O)N=S(N)(=O)c1ccn(C(C)C)n1)CCC2 (single isomer, unassigned) [Compound 644b, (R) or (S)-1-Isopropyl-N′-((2-isopropyl-3-methyl-6,7-dihydro-5H-cyclopenta[b]pyridin-4-yl)carbamoyl)-1H-pyrazole-3-sulfonimidamide]

IC50 [4]: 5 to 30 µM
Compound: CC(C)(O)c1cc(F)c(S(N)(=O)=NC(=O)Nc2c3c(nc(C(F)(F)F)c2C2CC2)CCC3)s1 (single isomer, unassigned) [Example 660, (S) or (R)-N′-((3-cyclopropyl-2-(trifluoromethyl)-6,7-dihydro-5H-cyclopenta[b]pyridin-4-yl)carbamoyl)-3-fluoro-5-(2-hydroxypropan-2-yl) thiophene-2-sulfonimidamide]

IC50 [4]: 5 to 30 µM
Compound: CCn1ccc(S(N)(=O)=NC(=O)Nc2c3c(nc(C4CC4)c2C2CC2)CCC3)n1 (single isomer, unassigned) [Example 700, (S) or (R)-N′-((2,3-dicyclopropyl-6,7-dihydro-5H-cyclopenta[b]pyridin-4-yl)carbamoyl)-1-ethyl-1H-pyrazole-3-sulfonimidamide]

IC50 [3]: 0.008 to 0.04 µM
Compound: CC1(C)CCc2c1nc1c(c2NC(=O)N=S(N)(=O)c2sc(C(C)(O)CO)cc2F)CCC1 (single isomer, unassigned) [Compound 640a, (R, R) and (S, R) or (R, S) and (S, S)-5-(1,2-Dihydroxypropan-2-yl)-N′-((3,3-dimethyl-1,2,3,5,6,7-hexahydrodicyclopenta [b,e]pyridin-8-yl)carbamoyl)-3-fluorotliophene-2-sulfonimidamide]

IC50 [3]: 5 to 30 µM
Compound: Cc1c(C(F)(F)F)nc2c(c1NC(=O)N=S(N)(=O)c1sc(C(C)(C)O)cc1F)CCC2 (single isomer, unassigned) [Compound 632b, (S) or (R)-3-Fluoro-5-(2-hydroxypropan-2-yl)-N′-((3-methyl-2-(trifluoromethyl)-6,7-dihydro-5H-cyclopenta[b]pyridin-4-yl)carbamoyl) thiophene-2-sulfonimidamide]

IC50 [1]: 0.04 to 0.2 µM
Compound: CCn1cc(F)c(S(N)(=O)=NC(=O)Nc2c3c(nc(C(F)(F)F)c2C2CC2)CCC3)n1 (single isomer, unassigned) [Example 773, (R) or (S)-N′-((3-cyclopropyl-2-(trifluoromethyl)-6,7-dihydro-5H-cyclopenta[b]pyridin-4-yl)carbamoyl)-1-ethyl-4-fluoro-1H-pyrazole-3-sulfonimidamide]

IC50 [2]: 5 to 30 µM
Compound: Cc1c(C(C)(C)C)nc2c(c1NC(=O)N=S(N)(=O)c1cc(C(C)(C)O)cs1)CCC2 (single isomer, unassigned) [Compound 657b, (R) or (S)-N′-((2-(tert-butyl)-3-methyl-6,7-dihydro-5H-cyclopenta[b]pyridin-4-yl)carbamoyl)-4-(2-hydroxypropan-2-yl)thiophene-2-sulfonimidamide]

IC50 (Homo sapiens, THP-1, Table B1, class symbols, read-out: Average IC50 of compounds in hTHP-1 assay: hTHP-1 IC50): 0.2 to 1 µM
Compound: CCc1c(C2CC2)nc2c(c1NC(=O)N=S(N)(=O)c1cc(C(C)(C)O)cs1)CCC2 (centres unmarked) [Compound 181, N′-((2-cyclopropyl-3-ethyl-6,7-dihydro-5H-cyclopenta[b]pyridin-4-yl)carbamoyl)-4-(2-hydroxypropan-2-yl)thiophene-2-sulfonimidamide]

IC50 [5]: 1 to 5 µM
Compound: CC(C)c1ncc(F)c(C(C)C)c1NC(=O)N=S(N)(=O)c1sc(C(C)(C)O)cc1F (single isomer, unassigned) [Compound 106b, (S) or (R)-3-fluoro-N′-((5-fluoro-2,4-diisopropylpyridin-3-yl)carbamoyl)-5-(2-hy-droxypropan-2-yl)thiophene-2-sulfonimidamide]

IC50 (Homo sapiens, THP-1, Table B3, hTHP-1 assay, numeric values, read-out: IC50): > 30 µM
Compound: CC(C)c1nc2c(cc1NC(=O)N=S(N)(=O)c1cnc(C(C)(C)O)s1)CCC2 (single isomer, unassigned) [Example 702, (S) or (R)-2-(2-Hydroxypropan-2-yl)-N′-((2-isopropyl-6,7-dihydro-5H-cyclopenta[b]pyridin-3-yl)carbamoyl)thiazole-5-sulfonimidamide]

IC50 [2]: 0.04 to 0.2 µM
Compound: CCn1ccc(S(N)(=O)=NC(=O)Nc2c3c(nc4c2CCC4(C)C)CCC3)n1 (centres unmarked) [Compound 603, N′-((3,3-dimethyl-1,2,3,5,6,7-hexahydrodicyclopenta[b,e]pyridin-8-yl)carbamoyl)-1-ethyl-1H-pyrazole-3-sulfonimidamide]

IC50 [4]: 5 to 30 µM
Compound: CC(C)(O)c1csc(S(N)(=O)=NC(=O)Nc2c3c(nc(C(F)(F)F)c2C2CC2)CCC3)c1 (single isomer, unassigned) [Example 645, (S) or (R)-N′-((3-cyclopropyl-2-(trifluoromethyl)-6,7-dihydro-5H-cyclopenta[b]pyridin-4-yl)carbamoyl)-4-(2-hydroxypropan-2-yl) thiophene-2-sulfonimidamide]

IC50 [4]: 5 to 30 µM
Compound: CCn1ccc(S(N)(=O)=NC(=O)Nc2c3c(nc4c2CCC42CC2)CCC3)n1 (single isomer, unassigned) [Example 688, (S) or (R)-1-Ethyl-N′-((1′,5′,6′,7′-tetrahydro-2′H-spiro[cyclopropane-1,3′-dicyclopenta[b,e]pyridin]-8′-yl)carbamoyl)-1H-pyrazole-3-sulfonimidamide]

IC50 [1]: 1 to 5 µM
Compound: CC(C)n1cc(F)c(S(N)(=O)=NC(=O)Nc2c3c(nc4c2CC[C@H]4C)CCC3)n1 (single isomer, unassigned) [Example 758, (S) or (R)-4-fluoro-1-isopropyl-N′-(((R)-3-methyl-1,2,3,5,6,7-hexahydrodicyclopenta[b,e]pyridin-8-yl)carbamoyl)-1H-pyrazole-3-sulfonimidamide]

IC50 (Homo sapiens, THP-1, Table B2, numeric bounds, read-out: hTHP-1 IC50): > 30 µM
Compound: Cc1c(C(=O)O)nc2c(c1NC(=O)N=S(N)(=O)c1cnc(C(C)(C)O)s1)CCC2 (centres unmarked) [Compound 712]

IC50 [5]: 0.2 to 1 µM
Compound: CC1CCc2c1nc1c(c2NC(=O)N=S(N)(=O)c2cc(C(C)(C)O)cs2)CCC1C (single isomer, unassigned) [Compound 131g, (R,R,R) or (R,S,S)-N′-((3,5-dimethyl-1,2,3,5,6,7-hexa-hydrodicyclo-penta[b,e]pyridin-8-yl)carbamoyl)-4-(2-hydroxypropan-2-yl)thio-phene-2-sulfonimidamide]

IC50 [2]: 0.2 to 1 µM
Compound: Cc1nc2c(c(NC(=O)N=S(N)(=O)c3ncc(C(C)(C)O)s3)c1C1CC1)CCC2 (single isomer, unassigned) [Compound 618b, (R) or (S)-N′-((3-cyclopropyl-2-methyl-6,7-dihydro-5H-cyclopenta[b]pyridin-4-yl)carbamoyl)-5-(2-hydroxypropan-2-yl)thiazole-2-sulfonimidamide]
